From patent US20250127788A1, “PHARMACEUTICAL COMPOSITION CONTAINING TRIAZINE DERIVATIVE” (Shionogi & Co., Ltd., priority 2021, published 2025)

Tested on: SARS-CoV-2
Test: microbe, parasite or virus in culture
Type: cell-based
[1] = Severe acute respiratory syndrome coronavirus 2, VeroE6/TMPRSS2
[2] = Severe acute respiratory syndrome coronavirus 2, VeroE6/TMPRSS2, Beta strain (TY8-612)
[3] = Severe acute respiratory syndrome coronavirus 2, VeroE6/TMPRSS2, Gamma strain (TY7-501)
[4] = Severe acute respiratory syndrome coronavirus 2, VeroE6/TMPRSS2, Gamma strain (TY7-503)

| SMILES | EC50 [1] [nM] | EC50 [2] [nM] | EC50 (Severe acute respiratory syndrome coronavirus 2, VeroE6/TMPRSS2, Delta strain (TY11-927-P1)) [nM] | EC50 [3] [nM] | EC50 [4] [nM] | EC50 (Severe acute respiratory syndrome coronavirus 2, VeroE6/TMPRSS2, Lambda strain (TY33-456)) [nM] | EC50 (Severe acute respiratory syndrome coronavirus 2, VeroE6/TMPRSS2, Mu strain (TY26-717)) [nM] | EC50 (Severe acute respiratory syndrome coronavirus 2, VeroE6/TMPRSS2, Theta strain (TY28-444)) [nM] | EC50 (Severe acute respiratory syndrome coronavirus 2, VeroE6/TMPRSS2, Alpha strain (QHN001)) [nM] | EC50 (Severe acute respiratory syndrome coronavirus 2, VeroE6/TMPRSS2, Alpha strain (QHN002)) [nM] | EC50 (Severe acute respiratory syndrome coronavirus 2, VeroE6/TMPRSS2, Alpha strain (QK002)) [nM] |
| --- | --- | --- | --- | --- | --- | --- | --- | --- | --- | --- | --- |
| Cn1cnc(Cn2c(=O)[nH]/c(=N\c3cc4cn(C)nc4cc3Cl)n(Cc3cc(F)c(F)cc3F)c2=O)n1 | 370 | 400 | 410 | 500 | 430 | 270 | 430 | 290 | – | – | – |
| Cc1cncc(-n2c(=O)nc(Nc3cc4cn(C)nc4cc3Cl)n(Cc3cc(F)c(F)c(F)c3)c2=O)c1 | 120 | 160 | – | 220 | 150 | – | – | – | 140 | 130 | 160 |
